This is an account of results in US5935955A, “Pharmaceutical piperazine compounds” (Xenova Limited, priority 1994, dated 1999).

The subject of data set [1] is AR 1.0 cells. Nature of the data set: Drug accumulation assay (tritiated daunorubicin). The following applies: Mus musculus; daunorubicin 2 μM; 1 hr at 37° C.; read-out: IC50 accumulation. It is filed as cell-based. The method, then: AR 1.0 cells were seeded into 96 well opaque culture plates (Canberra Packard). The assay medium contained a mixture of tritiated Daunorubicin (DNR), a cytotoxic agent, and unlabelled DNR (0.3 μCi/ml; 2 μM). Compounds of formula I were serially diluted in assay medium over a range of concentrations from 5 nM to 100 μM. The cells were incubated at 37° C. for 1 hr before washing and determination of cell associated radioactivity. Results were expressed as % maximum accumulation where 100% accumulation is that observed in the presence of the known RMA verapamil at 100 μM. Where possible an IC50 was determined.

Data set [2] concerns AR 1.0 cells. Nature of the data set: Compound toxicity (proliferation, sulphorhodamine B). It is filed as cell-based. Particulars: Mus musculus, 96 h; compound alone; AR 1.0 cells; four day incubation; read-out: Compound toxicity (IC50).
Data set [3] relates to AR 1.0 cells. The data set can be described thus: Potentiation of doxorubicin toxicity (fixed doxorubicin 0.86 μM, proliferation, sulphorhodamine B). It is filed as cell-based, mouse. From the text: Compounds of formula (I) were examined for their ability to potentiate the toxicity of doxorubicin in AR 1.0 cells.
For data set [4], the system named is AR 1.0 cells. Nature of the data set: Potentiation index for doxorubicin (doxorubicin titration with fixed concentration of compound). It is filed as cell-based, mouse. The method, then:
The EMT6 mouse mammary carcinoma cell line and the MDR resistant sublime AR 1.0 were cultured in RPMI 1640 medium containing 10% foetal calf serum and 2 mM glutamine at 37° C. in 5% CO2. Cells were passaged between 1 in 200 and 1 in 2000 in the case of the parental cell line and between 1 in 20 and 1 in 200 in the case of the MDR resistant subline, after trypsinisation (0.25% trypsin, 0.2 gl^-1, EDTA).
Cells were cultured for four days with a titration of doxorubicin (0.01 nm-50 μM) in the presence of a fixed concentration of each compound. Proliferation was quantified as described by Skehan et. al, loc cit. The IC50 (concentration required to reduce proliferation to 50% of the untreated controls) for doxorubicin alone and with each compound were derived and used to calculate the potentiation index (PI): [formula]

Another data set has as its system MDR cells. The following applies: in vitro and in vivo; Cancer Res., 41, 1967-1972 (1981); cited from earlier work.
Where [5] appears, read: RMA at 1 μM, doxorubicin, four days.
The mark [6] stands for this setting: with doxorubicin 0.86 μM, four day incubation, 5760 min, read-out: Toxicity with cytotoxic agent (IC50).

Take `Cn1c(=O)/c(=C/c2ccc(C(=O)Nc3ccc(CCN4CCC(O)(c5ccc(Cl)cc5)CC4)cc3)cc2)[nH]c(=O)/c1=C/c1ccccc1` [Compound 9079, N-(4-(2-(4-(4-Chlorophenyl) -4-hydroxypiperidino)ethyl)phenyl)-4-((3Z,6Z)-6-benzylidene-1-methyl-2,5-dioxo-3-piperazinylidene)methylbenzamide]: the IC50 (as a rule, the concentration at which inhibition is half-maximal) in the data set with AR 1.0 cells [1] turned out to be 80000 nM; with AR 1.0 cells [2] it was 2000 nM; with AR 1.0 cells [3] (ar 1.0 cells, 96 h) it was 1700 nM. The Potentiation index with AR 1.0 cells [4] (setting [5]) is on record as 3.

Turning to `COc1cc2c(cc1OC)CN(CCNC(=O)c1cccc(/C=c3\[nH]c(=O)/c(=C/c4ccccc4)n(C)c3=O)c1)CC2` [Compound 9136, N-(2-(6,7-Dimethoxy-1,2,3,4-tetrahydro-2-isoquinolyl)ethyl)-3-((3Z,6Z)-6-benzylidene-1-methyl-2,5-dioxo-3-piperazinylidene)methylbenzamide], the IC50 in the data set with AR 1.0 cells [1] worked out at 900 nM; in the data set on AR 1.0 cells [2], 13000 nM; in the data set with AR 1.0 cells [3] (setting [6]) it was 2000 nM. Further, the Potentiation index in the data set on AR 1.0 cells [4] (setting [5]) came to 25.

For `COc1ccc(CCN(C)CCc2ccc(NC(=O)c3cccc(/C=c4\[nH]c(=O)/c(=C/c5ccccc5)n(C)c4=O)c3)cc2)cc1OC` [Compound 9138], the 50% inhibitory concentration (IC50) came to 800 nM in the data set on AR 1.0 cells [1], 8000 nM in the data set with AR 1.0 cells [2] and 1000 nM with AR 1.0 cells [3] (setting [6]). Further, the Potentiation index in the data set on AR 1.0 cells [4] (setting [5]) is 333.

Take `CN(CCNC(=O)c1cccc(/C=c2\[nH]c(=O)/c(=C/c3ccccc3)n(C)c2=O)c1)CC(c1ccccc1)c1ccccc1` [Compound 9163, N-(2-(2,2-Diphenylethyl)methylaminoethyl)-3-((3Z,6Z)-6-benzylidene-1-methyl-2,5-dioxo-3-piperazinylidene)methylbenzamide]: the IC50 in the data set on AR 1.0 cells [1] came out at 2000 nM; in the data set on AR 1.0 cells [2], 10000 nM; in the data set with AR 1.0 cells [3] (setting [6]), 500 nM. In addition, the Potentiation index in the data set with AR 1.0 cells [4] (setting [5]) came out at 6.7.

For `COc1cc2c(cc1OC)CN(CCc1ccc(COc3ccc(/C=c4\[nH]c(=O)/c(=C/c5ccccc5)n(C)c4=O)cc3)cc1)CC2` [Compound 9176, (3Z,6Z)-6-Benzylidene-3-(4-(4-(2-(6,7-dimethoxy-1,2,3,4-tetrahydro-2-isoquinolyl)ethyl)benzyloxy)benzylidene)-1-methyl-2,5-piperazinedione], the results for the IC50 in the data set with AR 1.0 cells [1], in the data set on AR 1.0 cells [2] and in the data set with AR 1.0 cells [3] (setting [6]) were 1000 nM, 10000 nM and 200 nM, respectively. Besides, the Potentiation index with AR 1.0 cells [4] (setting [5]) was determined as 300.0.

Turning to `COc1cc2c(cc1OC)CN(CCc1ccc(COc3cccc(/C=c4\[nH]c(=O)/c(=C/c5ccccc5)n(C)c4=O)c3)cc1)CC2` [Compound 9177, (3Z,6Z)-6-Benzylidene-3-(3-(4-(2-(6,7-dimethoxy-1,2,3,4-tetrahydro-2-isoquinolyl)ethyl)benzyloxy)benzylidene)-1-methyl-2,5-piperazinedione], the figures for the IC50 with AR 1.0 cells [1], in the data set on AR 1.0 cells [2] and in the data set with AR 1.0 cells [3] (setting [6]) were 1750 nM, 15000 nM and 500 nM, respectively. Also, the Potentiation index with AR 1.0 cells [4] (setting [5]) stood at 75.0.

On to `COc1cc2c(cc1OC)CN(CCc1ccc(C(=O)Nc3ccc(/C=c4\[nH]c(=O)/c(=C/c5ccccc5)n(C)c4=O)cc3)cc1)CC2` [Compound 9190, N-(4-((3Z,6Z)-6-Benzylidene-1-methyl-2,5-dioxo-3-piperazinylidene)methylphenyl)-4-(2-(6,7-dimethoxy-1,2,3,4-tetrahydro-2-isoquinolyl)ethyl)benzamide], for which the results for the IC50 in the data set with AR 1.0 cells [1], in the data set on AR 1.0 cells [2] and in the data set with AR 1.0 cells [3] (setting [6]) were 350 nM, 15000 nM and 50 nM, respectively. Moreover, the Potentiation index in the data set on AR 1.0 cells [4] (measured at 0.01 μM) is on record as 1.4; in the data set with AR 1.0 cells [4] (measured at 0.03 μM), 3.3; in the data set with AR 1.0 cells [4] (measured at 0.1 μM) it was 10.0; with AR 1.0 cells [4] (measured at 0.3 μM), 75.0.

With `COc1ccc(CCN(C)CCCC(C#N)(c2ccc(OC)c(OC)c2)C(C)C)cc1OC` (centres unmarked) [Verapamil], the “sensitisation of MDR cells to Vinca alkaloids” value with MDR cells is “shown to sensitise MDR cells to Vinca alkaloids in vitro and in vivo”.
